Reference: patent US9771585B2, “miR-155 inhibitors for treating cutaneous T cell lymphoma (CTCL)” (miRagen Therapeutics, Inc., priority 2015, dated 2017)
l = locked nucleic acid (LNA); d = 2'-deoxy (DNA)

What was measured:
Format in all cases: cell-based, human
[1] = system: miR-155-5p; assay: Real time PCR of miR-155 direct target genes (four-gene signature) in mycosis fungoides cell lines MJ, HuT102, My-La; conditions: for gene expression signature of four direct miR-155-5p targets versus untreated cells: MJ and HuT102 cells, 10 μM, 72 hours; for target de-repression: both HuT102 and MyLa cell lines, compared to compound 3; for antimiR activity by four-gene signature (Bach1, Jarid2, Picalm, Ship1): cumulative across 2, 10 and 50 μM and three mycosis fungoides cell lines, compared to compounds 1 and 3
Protocol: CTCL cell lines were cultured in complete growth medium with the addition of antimiR-155 compound 1 (SEQ ID NO: 27), compound 2 (SEQ ID NO: 22), compound 3 (SEQ ID NO: 23), and compound 4 (SEQ ID NO: 25) at concentrations ranging from 2 μM to 50 μM. The antimiRs were added to the medium without any additional components to enhance cellular uptake. Cells were harvested after 72 hours of treatment and total RNA was purified. Real time PCR was performed for 13 direct gene targets of miR-155 (Worm et al. 2009; O'Connell et al. 2010; Zhang et al. 2012; and miRagen unpublished data). The relative fold-change in the expression of the 13 genes in the antimiR-treated cells compared to the untreated cells was calculated. […] Four predicted direct targets that lacked expression in at least one cell line were omitted. The gene expression fold-changes were log10-transformed, plotted on a grayscale, representing the highest relative increase in gene expression, and conversely, the greatest reduction in gene expression.
Four direct gene targets of miR-155-5p (Bach1, Jarid2, Picalm, and Ship1) were chosen for additional analysis, as these four genes were modulated by antimiR-155 in all three mycosis fungoides cell lines (MJ, HuT102, and My-La). These genes were chosen to represent the gene expression signature for antimiR activity in vitro. Additionally, the four-gene signature was used to compare the activity of the antimiR compounds. These gene changes were reproducible over three independent experiments with cells of varying passage numbers. FIGS. 3, 4, 5, 6, and 7 show the fold-change results of this four-gene signature in the HuT102, MJ, HH, My-La, and Hut78 cell lines, respectively. * p-value <0.0001 vs untreated by nonparametric Mann-Whitney test. The Mann-Whitney test was chosen because the variances are unequal between the treatments compared to untreated cells.
The control oligonucleotide was a 14-nucleotide antimiR targeting a C. elegans miRNA not expressed in mammals (control 1). The second oligo is a scramble of the 14-nucleotide sequence of antimiR-155 compound 4 (control 2). The MJ and HuT102 cell lines were incubated with 10 μM antimiR-155 compounds 3 (SEQ ID NO: 23) or 4 (SEQ ID NO: 25) or the two control oligos for 72 hours.

[2] = system: miR-155-5p; assay: Whole genome expression profiling of mycosis fungoides cell lines (MJ, HuT102, MyLa)
Protocol: To gain a more complete understanding of the molecular consequences of miR-155 inhibition in mycosis fungoides cell lines, whole genome transcriptome profiling was performed on MJ and HuT102 cell lines treated with antimiR-155 compounds 3 (SEQ ID NO: 23) or 4 (SEQ ID NO: 25) for 4 days (96 hours) or 8 days. The statistically-significant gene expression signature was defined by one-way ANOVA for antimiR-treated cells compared to untreated cells at the same time point. […] The fold-change results are shown in FIGS. 9 and 10 as heat maps, as described for FIG. 2.
(§1) The activity of antimiR-155 compound 4 (SEQ ID NO: 25) was further investigated by treating the third mycosis fungoides cell line, MyLa, with compound 4 (SEQ ID NO: 25) for 4 days and 8 days and profiling the changes in gene expression. To test the specificity of compound 4 (SEQ ID NO: 25), cells of the Sézary syndrome cell line (HuT78) were treated with compound 4 (SEQ ID NO: 25) for 8 days and the changes in gene expression were profiled. Genes that are statistically changed with a false discovery rate (FDR) corrected p-value of <0.05 in response to compound 4 (SEQ ID NO: 25) in three mycosis fungoides cell lines, HuT102, MJ, and My-La, are depicted in the heat map as described above. The total number of genes in the heat map is 324.

[3] = system: miR-155-5p; assay: Whole genome expression profiling of Sézary syndrome cell line HuT78; conditions: 8 days
Protocol: as §1

[4] = system: HuT102 cells; assay: Proliferation (cell number by ATP level) of HuT102 cells; conditions: HuT-102 cells over time; compared with bexarotene
Protocol: (§2) Since the level of ATP correlates directly with cell number, ATP was measured to determine the cell number. […] The reduction in cell number was accompanied by an increase in apoptosis as measured by caspase 3/7 activity (FIG. 14B). The caspase 3 and 7 proteins are members of the cysteine aspartic acid-specific protease (caspase) family. The caspase family plays key effector roles in apoptosis in mammalian cells. Caspase activity was normalized to ATP levels, as all cells have a low level of basal caspase activity that can confound the results if not normalized appropriately.

[5] = system: HuT102 cells; assay: Apoptosis (caspase 3/7 activity) in HuT102 cells
Protocol: as §2
HuT102 cells were treated with 0.25 μM SAHA and 10 μM compound 3 (SEQ ID NO: 23) or 4 (SEQ ID NO: 25), individually or in combination. Cells were harvested daily to measure ATP levels and caspase 3/7 activity. A similar experiment was performed with 0.50 μM SAHA.

[6] = system: My-La cells; assay: Proliferation of My-La cells; conditions: compared to compound 3
Source text: (§3) FIGS. 17A and 17B show proliferation and activation of caspase 3/7 over time with compounds 3 (SEQ ID NO: 23) and 4 (SEQ ID NO: 25).

[7] = system: My-La cells; assay: Caspase 3/7 activity in My-La cells; conditions: compared to compound 3
Source text: as §3

[8] = system: HuT102 and MyLa cell lines; assay: Cellular proliferation of CTCL cells after passive uptake; conditions: compared to compound 3
Protocol: (§4) Passive uptake of antimiR-155 compounds by CTCL cells produced a significant reduction in cellular proliferation and induced programmed cell death.
as §2

[9] = system: HuT102 and MyLa cell lines; assay: Programmed cell death (apoptosis) of CTCL cells after passive uptake; conditions: compared to compound 3
Protocol: as §4, §2

[10] = system: miR-155; assay: Dual luciferase reporter assay with miR-155 binding site in HeLa cells; conditions: 2 nM oligonucleotide, 10 nM miR-155 mimic, 50 ng reporter
Source text: To assess the activity of a miR-155 inhibitor, a dual luciferase reporter assay system was used. In brief, the binding site for miR-155 was cloned into the 3′ UTR of the Renilla luciferase gene located within the commercially-available psiCHECK-2 vector system (Promega). In the absence of a miR-155 inhibitor, the expression of Renilla luciferase protein is repressed by a miR-155 mimic. In the presence of a miR-155 inhibitor, the expression of Renilla luciferase protein is de-repressed. […] Expression of either Renilla or firefly luciferase is measured through detection of light emitted by the luciferase protein.
50 ng of the dual luciferase reporter plasmid containing the miR-155 binding site was transfected into HeLa cells without a miR-155 mimic (“Reporter” only), with 10 nM miR-155 mimic (“Reporter+mimic”), with 10 nM miR-155 mimic and 2 nM of the control oligonucleotide, or with 10 nM miR-155 mimic and 2 nM of a test miR-155 oligonucleotide inhibitor of 11-14 nucleotide lengths (Table 4). The miR-155 mimic was purchased from Dharmacon (miRIDIAN microRNA Human hsa-miR-155-5p mimic; Accession number MIMAT0000646; catalog # C-300647-05-0005) and contains the mature miRNA sequence: -[…]-(SEQ ID NO: 121). The control oligonucleotide used in the experiment had the following sequence: 5′-1Cs.dTs.dAs.1Gs.dAs.1As.dAs.1Gs.1As.dGs.1Ts.dAs.1Gs.1A-3′ (SEQ ID NO: 122).

| Substance | gene expression signature of four direct miR-155-5p targets versus untreated cells [1] | target de-repression [1] | antimiR activity by four-gene signature (Bach1, Jarid2, Picalm, Ship1) [1] | inhibition of proliferation [8] | apoptotic activity [9] | other results |
| --- | --- | --- | --- | --- | --- | --- |
| 5′-lCs.dAs.lCs.dGs.dAs.lTs.lTs.dAs.lGs.dCs.lAs.lTs.lTs.lA-3′ (CACGATTAGCATTA; sugars from the 5' end ldlddlldldllll, all phosphorothioate, methylation of C not given here) [compound 4] | statistically significantly different from that of untreated cells | greater target de-repression | more active | greater inhibition of proliferation | greater apoptotic activity | genes up-regulated or down-regulated in all three mycosis fungoides cell lines ([2]; Day 4 and Day 8 signatures combined, Table 2): 587 genes; magnitude of gene regulation ([2]; MJ and HuT102, day 4 and day 8, heat map intensity): greater magnitude of gene regulation; change in gene expression [3]: did not show much change in the gene expression; effect on cell number (ATP) [4]: comparable to that seen with bexarotene; apoptosis (caspase 3/7 activity) in combination with SAHA ([5]; HuT102, 10 μM compound combined with 0.25 or 0.5 μM SAHA, compared to each treatment alone): increased apoptosis; induction of apoptosis (caspase 3/7 activity normalized to ATP) ([5]; HuT-102 cells over time, compared with bexarotene): greater induction of apoptosis than bexarotene; proliferation over time [6]: greater activity; activation of caspase 3/7 over time [7]: greater activity |
| 5′-lCs.dGs.lAs.lTs.lTs.lAs.lGs.dCs.lAs.lTs.lTs.lA-3′ (CGATTAGCATTA; sugars from the 5' end l1 d1 l5 d1 l4, all phosphorothioate, methylation of C not given here) [compound 2] |  | greater target de-repression | more active | greater inhibition of proliferation | greater apoptotic activity |  |
| 5′-lCs.dGs.lAs.lTs.lTs.dAs.lGs.dCs.lAs.lTs.lTs.lA-3′ (CGATTAGCATTA; sugars from the 5' end ldllldldllll, all phosphorothioate, methylation of C not given here) [compound 3] | statistically significantly different from that of untreated cells |  |  |  |  |  |
| 5′-1Cs.dTs.dAs.1Gs.dAs.1As.dAs.1Gs.1As.dGs.1Ts.dAs.1Gs.1A-3′ (CTAGAAAGAGTAGA; LNA/DNA mix, phosphorothioate backbone; miR-155 control oligo 11317; (1)..(14) May be joined through phosphorothioate bonds; modified_base (1)..(1) May be locked nucleic acid cytidine; modified_base (4)..(4) May be locked nucleic acid guanosine; modified_base (6)..(6) May be locked nucleic acid adenosine; modified_base (8)..(8) May be locked nucleic acid guanosine; modified_base (9)..(9) May be locked nucleic acid adenosine; modified_ba) [control oligonucleotide, control oligonucleotide used in the dual luciferase reporter experiment] |  |  |  |  |  | de-repression of Renilla luciferase expression [10]: did not de-repress the expression of luciferase |
